Here are results for 24 molecules from patent publication US8461328B2, “Tricyclic heterocyclic compounds, compositions and methods of use thereof” (Genentech, Inc., priority 2010, dated 2013).

Format in all cases: biochemical
For one assay, the target named is T1, JAK1 (Homo sapiens, UniProt P23458).
T1 construct: made in house; host or cells: SF9 insect cells (baculovirus)
In words: JAK1 inhibition (Table 4). Conditions: read-out: JAK1 Ki.

The target in the next assay is T2, JAK2 (Homo sapiens, UniProt O60674).
T2 construct: made in house; host or cells: SF9 insect cells (baculovirus)
As to the kind of experiment: JAK2 inhibition (Table 4). The note with it: read-out: JAK2 Ki.

Another assay deals with T3, JAK3 (Homo sapiens, UniProt P52333).
T3 construct: made in house; host or cells: SF9 insect cells (baculovirus)
In words: JAK3 inhibition (Table 4). Conditions: read-out: JAK3 Ki.

For the next assay, the target named is T4, TYK2 (Homo sapiens, UniProt P29597).
T4 construct: made in house; host or cells: SF9 insect cells (baculovirus)
T4 sequence (P29597 873-1187): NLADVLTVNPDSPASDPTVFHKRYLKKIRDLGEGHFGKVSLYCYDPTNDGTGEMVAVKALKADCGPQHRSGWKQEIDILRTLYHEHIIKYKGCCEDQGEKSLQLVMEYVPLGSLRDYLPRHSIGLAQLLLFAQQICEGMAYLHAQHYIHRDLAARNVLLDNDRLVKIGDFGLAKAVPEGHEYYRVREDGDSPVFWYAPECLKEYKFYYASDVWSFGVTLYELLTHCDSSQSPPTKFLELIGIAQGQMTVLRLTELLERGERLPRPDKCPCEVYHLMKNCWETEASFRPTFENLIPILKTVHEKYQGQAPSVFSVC
As to the kind of experiment: TYK2 inhibition (Table 4).

pKi: −log10 of the molar value.

T2 sequence (O60674 812-1132): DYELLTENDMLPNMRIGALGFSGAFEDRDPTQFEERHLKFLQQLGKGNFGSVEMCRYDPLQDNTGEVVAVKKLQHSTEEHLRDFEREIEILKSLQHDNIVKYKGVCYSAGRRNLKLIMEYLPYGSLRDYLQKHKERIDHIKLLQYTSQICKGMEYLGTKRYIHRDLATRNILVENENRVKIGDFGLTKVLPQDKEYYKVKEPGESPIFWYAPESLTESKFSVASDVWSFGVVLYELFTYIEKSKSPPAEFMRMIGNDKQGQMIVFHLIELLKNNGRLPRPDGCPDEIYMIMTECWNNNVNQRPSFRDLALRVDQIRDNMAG
T3 sequence (P52333 783-1124): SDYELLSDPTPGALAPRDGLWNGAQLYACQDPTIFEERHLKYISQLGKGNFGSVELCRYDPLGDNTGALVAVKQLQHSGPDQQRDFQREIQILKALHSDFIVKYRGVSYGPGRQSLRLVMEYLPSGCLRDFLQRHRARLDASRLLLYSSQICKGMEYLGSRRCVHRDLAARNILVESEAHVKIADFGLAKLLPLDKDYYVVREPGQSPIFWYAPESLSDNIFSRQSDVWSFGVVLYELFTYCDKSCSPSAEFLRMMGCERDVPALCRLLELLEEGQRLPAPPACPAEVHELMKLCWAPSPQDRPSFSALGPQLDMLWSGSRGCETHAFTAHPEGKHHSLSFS
T1 sequence (P23458 852-1154): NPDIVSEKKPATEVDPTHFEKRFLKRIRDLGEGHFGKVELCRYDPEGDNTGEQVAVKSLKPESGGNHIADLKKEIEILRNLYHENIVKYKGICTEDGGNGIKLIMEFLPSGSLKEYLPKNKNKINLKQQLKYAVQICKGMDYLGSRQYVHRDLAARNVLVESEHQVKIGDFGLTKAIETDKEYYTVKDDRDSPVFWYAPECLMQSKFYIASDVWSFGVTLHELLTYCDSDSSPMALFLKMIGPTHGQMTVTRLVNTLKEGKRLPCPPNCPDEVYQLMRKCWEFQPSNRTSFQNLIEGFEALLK

By pKi is commonly meant −log10 of the Ki, conventionally taken in molar units. As for `CC(C)NC(=O)[C@H]1CC[C@H](n2nnc3cnc4[nH]ccc4c32)CC1` [Example 165, Trans 4-(6H-1,2,3,5,6-Pentaaza-as-indacen-1-yl)-cyclohexanecarboxylic acid isopropylamide], the negative logarithm of the Ki (pKi) at JAK1 is 7.31; at JAK2 it was 6.75; at JAK3, 6.10; on TYK2, 6.26.

For the molecule `N#CCCNC1CC(n2cnc3cnc4[nH]ccc4c32)C1` (stereo not drawn) [Example 331, 3-[3-(6H-1,3,5,6-Tetraaza-as-indacen-1-yl)-cyclobutylamino]-propionitrile], the pKi on JAK1 is 8.22; at JAK2 it was 7.80; on JAK3, 7.19; at TYK2, 7.34.

For the molecule `Cc1nc2cnc3[nH]ccc3c2n1C1CCC(NC(=O)CC#N)C1` (racemic) [Example 728, 2-Cyano-N-[3-(2-methyl-6H-1,3,5,6-tetraaza-as-indacen-1-yl)-cyclopentyl]-acetamide], the negative logarithm of the Ki (pKi) at JAK1 is 8.82; at JAK2 it was 8.20; at JAK3, 8.65; at TYK2, 7.65.

For `Cn1cc(CCc2nc3cnc4[nH]ccc4c3n2C2CCN(CCC#N)CC2)cn1` [Example 412, 3-(4-{2-[2-(1-Methyl-1H-pyrazol-4-yl)-ethyl]-6H-1,3,5,6-tetraaza-as-indacen-1-yl}-piperidin-1-yl)-propionitrile], the pKi was 7.67 on JAK1, 7.10 on JAK2, 6.90 on JAK3 and 6.26 at TYK2.

For the molecule `CC(C)c1nccn1CCc1nc2cnc3[nH]ccc3c2n1C1CCN(CCC#N)CC1` [Example 816, 3-(4-{2-[2-(2-Isopropyl-imidazol-1-yl)-ethyl]-6H-1,3,5,6-tetraaza-as-indacen-1-yl}-piperidin-1-yl)-propionitrile], the negative logarithm of the Ki (pKi) is 8.11 at JAK1, 7.71 at JAK2, 7.04 on JAK3 and 7.04 on TYK2.

`CC1(n2nnc3cnc4[nH]ccc4c32)CCN(S(=O)(=O)c2cccnc2)CC1` [Example 584, 1-[4-Methyl-1-(pyridine-3-sulfonyl)-piperidin-4-yl]-1,6-dihydro-1,2,3,5,6-pentaaza-as-indacene]: the negative logarithm of the Ki (pKi) is 7.43 on JAK1, 6.98 on JAK2, 5.88 on JAK3 and 6.34 at TYK2.

Regarding `C[C@@H](O)c1nc2cnc3[nH]ccc3c2n1C1CCN(CC(F)F)CC1` [Example 916, (R)-1-{1-[1-(2,2-Difluoro-ethyl)-piperidin-4-yl]-1,6-dihydro-1,3,5,6-tetraaza-as-indacen-2-yl}-ethanol], the negative logarithm of the Ki (pKi) at JAK1 is 8.17; on JAK2 it was 7.28; on JAK3 it was 7.20; at TYK2 it was 7.11.

In the case of `C[C@@H](O)c1nc2cnc3[nH]ccc3c2n1[C@H]1CCCOC1` [Example 199, (R)-1-[(S)-1-(Tetrahydro-pyran-3-yl)-1,6-dihydro-1,2,3,5,6-tetraaza-as-indacen-2-yl]-ethanol], the negative-log Ki (pKi) at JAK1 was 8.60; at JAK2, 7.17; at JAK3, 6.96; on TYK2, 7.56.

In the case of `N#Cc1cccc(S(=O)(=O)N2CCC(n3cnc4cnc5[nH]ccc5c43)CC2)c1` [Example 73, 3-[4-(6H-1,3,5,6-Tetraaza-as-indacen-1-yl)-piperidine-1-sulfonyl]benzonitrile], the negative-log Ki (pKi) on JAK1 was 9.04; at JAK2, 9.02; on JAK3 it was 7.24; at TYK2, 8.17.

As to `CC(C)(C)OC(=O)N1CCC[C@@H]1C(=O)N1CCC(n2cnc3cnc4[nH]ccc4c32)CC1` [Example 242, (R)-2-[4-(6H-1,3,5,6-Tetraaza-as-indacen-1-yl)-piperidine-1-carbonyl]-pyrrolidine-1-carboxylic acid tert-butyl ester], the negative-log Ki (pKi) at JAK1 is 6.66; at JAK2, 6.51; on JAK3, 5.39; at TYK2, 5.59.

For `CS(=O)(=O)c1ccc(S(=O)(=O)N2CCC(n3cnc4cnc5[nH]ccc5c43)CC2)cc1` [Example 450, 1-(1-(4-(methylsulfonyl)phenylsulfonyl)piperidin-4-yl)-1,6-dihydroimidazo[4,5-d]pyrrolo[2,3-b]pyridine], the negative logarithm of the Ki (pKi) at JAK1 was 8.51; at JAK2, 7.99; on JAK3, 6.18; on TYK2, 7.48.

As to `CC(=O)NC1CCCC(n2cnc3cnc4[nH]ccc4c32)C1` (single isomer, unassigned) [Example 478, N-[3-(6H-1,3,5,6-Tetraaza-as-indacen-1-yl)-cyclohexyl]-acetamide], the negative-log Ki (pKi) on JAK1 is 7.08; on JAK2 it was 6.90; on JAK3, 6.28; on TYK2, 6.37.

Consider `N#CCN1CCC[C@H]1C(=O)N1CCC(n2cnc3cnc4[nH]ccc4c32)CC1` [Example 146, {(S)-2-[4-(6H-1,2,3,5,6-Tetraaza-as-indacen-1-yl)-piperidine-1-carbonyl]-pyrrolidin-1-yl}-acetonitrile], for which the pKi on JAK1 is 6.82; at JAK2, 6.72; at JAK3, 5.56; on TYK2, 5.76.

For the molecule `CC1CN(S(C)(=O)=O)CCC1n1cnc2cnc3[nH]ccc3c21` (racemic) [Example 345, 1-(1-Methanesulfonyl-3-methyl-piperidin-4-yl)-1,6-dihydro-1,3,5,6-tetraaza-as-indacene], the negative logarithm of the Ki (pKi) on JAK1 is 8.04; on JAK2, 8.01; on JAK3, 6.45; at TYK2, 7.43.

For `NC(=O)CN1CCC[C@@H](n2cnc3cnc4[nH]ccc4c32)C1` [Example 11, 2-[(R)-3-(6H-1,2,3,5,6-Tetraaza-as-indacen-1-yl)-piperidin-1-yl]acetamide], the negative-log Ki (pKi) was 7.76 on JAK1, 7.43 on JAK2, 7.02 on JAK3 and 6.75 at TYK2.

Take `O=C(Cc1nc2cnc3[nH]ccc3c2n1C1CCN(Cc2ccccc2)CC1)NC1CCCC1` [Example 99, 2-[1-(1-Benzyl-piperidin-4-yl)-1,6-dihydro-1,3,5,6-tetraaza-as-indacen-2-yl]-N-cyclopentyl-acetamide]: the negative logarithm of the Ki (pKi) on JAK1 was 8.37; at JAK2 it was 7.79; on JAK3, 7.97; at TYK2, 6.23.

Take `N#CCCN1CCC(n2c(CC(N)=O)nc3cnc4[nH]ccc4c32)CC1` [Example 264, 2-{1-[1-(2-Cyano-ethy)-piperidin-4-yl]-1,6-dihydro-1,3,5,6-tetraaza-as-indacen-2-yl}-acetamide]: the negative-log Ki (pKi) at JAK1 is 8.27; at JAK2, 7.57; on JAK3 it was 7.85; on TYK2, 7.20.

As for `CCOC(=O)NCCc1nc2cnc3[nH]ccc3c2n1C1CCN(CC)CC1(F)F` (stereo not drawn) [Example 678, {2-[1-(1-Ethyl-3,3-difluoro-piperidin-4-yl)-1,6-dihydro-1,2,3,5,6-tetraaza-as-indacen-2-yl]-ethyl}-carbamic acid ethyl ester], the negative logarithm of the Ki (pKi) is 8.40 at JAK1, 7.50 on JAK2, 7.63 on JAK3 and 6.56 at TYK2.

Turning to “N-tert-Butyl-2-[1-(tetrahydro-pyran-3-yl)-1,6-dihydro-1,3,5,6-tetraaza-as-indacen-2-yl]-acetamide [Example 964]”, the negative logarithm of the Ki (pKi) was 7.10 at JAK1, 6.56 on JAK2, 6.79 on JAK3 and 6.31 at TYK2.

For `c1cncc(CN2CCC[C@@H](n3cnc4cnc5[nH]ccc5c43)C2)c1` [Example 39, 1-((R)-1-Pyridin-3-ylmethyl-piperidin-3-yl)-1,6-dihydro-1,3,5,6-tetraaza-as-indacene], the pKi at JAK1 is 7.45; at JAK2 it was 6.99; at JAK3 it was 6.74; on TYK2 it was 6.48.

Consider `c1cc2c(ncc3ncn([C@H]4[C@@H]5CNC[C@@H]54)c32)[nH]1` [Example 944, (1R,5S,6S)-1-(3-Aza-bicyclo[3.1.0]hex-6-yl)-1,6-dihydro-1,3,5,6-tetraaza-as-indacene], for which the pKi at JAK1 is 6.64; on JAK2, 6.05; on JAK3, 5.61; on TYK2 it was 5.74.

As for `c1ccc(CN2CCC(n3c(C4CCC4)nc4cnc5[nH]ccc5c43)CC2)cc1` [Example 325, 1-(1-Benzyl-piperidin-4-yl)-2-cyclobutyl-1,6-dihydro-1,3,5,6-tetraaza-as-indacene], the pKi on JAK1 is 8.28; on JAK2, 7.67; on JAK3 it was 7.71; at TYK2 it was 5.87.

In the case of `Cc1ccnn1CCc1nc2cnc3[nH]ccc3c2n1C1CCN(CCC#N)CC1` [Example 410, 3-(4-{2-[2-(5-Methyl-pyrazol-1-yl)-ethyl]-6H-1,3,5,6-tetraaza-as-indacen-1-yl}-piperidin-1-yl)-propionitrile], the pKi is 7.60 on JAK1, 7.09 at JAK2, 6.61 at JAK3 and 6.50 at TYK2.

For the molecule `c1ccc(CN2CCC(n3c(Cn4cccn4)nc4cnc5[nH]ccc5c43)CC2)cc1` [Example 201, 1-(1-Benzyl-piperidin-4-yl)-2-pyrazol-1-ylmethyl-1,6-dihydro-1,2,3,5,6-tetraaza-as-indacene], the negative logarithm of the Ki (pKi) at JAK1 is 8.14; on JAK2, 7.60; at JAK3, 7.91; on TYK2, 6.31.
